From ChEMBL document CHEMBL1143163, “Structures of the ligand-binding core of iGluR2 in complex with the agonists (R)- and (S)-2-amino-3-(4-hydroxy-1,2,5-thiadiazol-3-yl)propionic acid explain their unusual equipotency” (J Med Chem, 2008)

Assays:
[1] = target: Glutamate receptor 1 (Homo sapiens, UniProt P42261); experiment: Binding affinity at iGluR1o receptor expressed in sf9 cells by radioligand binding assay
[2] = target: Glutamate receptor ionotropic, kainate 2 (Homo sapiens, UniProt Q13002); experiment: Binding affinity at iGluR6(V,C,R) receptor expressed in sf9 cells by radioligand binding assay
[3] = target: Glutamate receptor 3 (Homo sapiens, UniProt P42263); experiment: Binding affinity at iGluR3o receptor expressed in sf9 cells by radioligand binding assay
[4] = target: T1, Glutamate receptor 2 (Homo sapiens, UniProt P42262); experiment: Binding affinity at iGluR2 receptor S1S2J domain expressed in sf9 cells by radioligand binding assay
[5] = target: T1, Glutamate receptor 2; experiment: Binding affinity at iGluR2o(R) receptor expressed in sf9 cells by radioligand binding assay
[6] = target: Glutamate receptor 4 (Homo sapiens, UniProt P48058); experiment: Binding affinity at iGluR4o receptor expressed in sf9 cells by radioligand binding assay
Sequence of Glutamate receptor 4 (P48058 whole entry): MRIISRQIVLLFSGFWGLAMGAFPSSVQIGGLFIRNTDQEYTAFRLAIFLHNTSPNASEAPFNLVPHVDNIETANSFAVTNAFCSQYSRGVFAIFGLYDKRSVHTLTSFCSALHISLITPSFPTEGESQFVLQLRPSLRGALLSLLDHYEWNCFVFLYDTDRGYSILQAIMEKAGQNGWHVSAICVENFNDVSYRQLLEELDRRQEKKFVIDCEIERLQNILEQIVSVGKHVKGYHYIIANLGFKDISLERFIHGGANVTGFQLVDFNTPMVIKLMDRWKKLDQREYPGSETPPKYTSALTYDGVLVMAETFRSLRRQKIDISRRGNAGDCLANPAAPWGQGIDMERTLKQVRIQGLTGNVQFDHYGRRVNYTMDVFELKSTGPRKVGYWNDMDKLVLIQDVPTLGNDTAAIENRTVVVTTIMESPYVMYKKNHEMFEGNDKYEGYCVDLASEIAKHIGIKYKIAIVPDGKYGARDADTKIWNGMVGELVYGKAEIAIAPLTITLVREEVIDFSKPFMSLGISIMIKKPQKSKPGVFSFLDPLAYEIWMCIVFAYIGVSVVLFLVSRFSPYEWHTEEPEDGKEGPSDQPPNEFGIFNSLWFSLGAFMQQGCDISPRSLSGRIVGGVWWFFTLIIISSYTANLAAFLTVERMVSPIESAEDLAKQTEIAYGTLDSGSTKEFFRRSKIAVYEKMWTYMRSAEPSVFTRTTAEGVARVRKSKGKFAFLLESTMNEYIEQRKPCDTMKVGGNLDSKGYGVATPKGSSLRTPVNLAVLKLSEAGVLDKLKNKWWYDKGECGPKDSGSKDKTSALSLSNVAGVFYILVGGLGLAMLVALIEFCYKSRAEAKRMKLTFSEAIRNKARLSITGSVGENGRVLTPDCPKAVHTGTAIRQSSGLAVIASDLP

T1 sequence (P42262 whole entry, the tested form may be a part): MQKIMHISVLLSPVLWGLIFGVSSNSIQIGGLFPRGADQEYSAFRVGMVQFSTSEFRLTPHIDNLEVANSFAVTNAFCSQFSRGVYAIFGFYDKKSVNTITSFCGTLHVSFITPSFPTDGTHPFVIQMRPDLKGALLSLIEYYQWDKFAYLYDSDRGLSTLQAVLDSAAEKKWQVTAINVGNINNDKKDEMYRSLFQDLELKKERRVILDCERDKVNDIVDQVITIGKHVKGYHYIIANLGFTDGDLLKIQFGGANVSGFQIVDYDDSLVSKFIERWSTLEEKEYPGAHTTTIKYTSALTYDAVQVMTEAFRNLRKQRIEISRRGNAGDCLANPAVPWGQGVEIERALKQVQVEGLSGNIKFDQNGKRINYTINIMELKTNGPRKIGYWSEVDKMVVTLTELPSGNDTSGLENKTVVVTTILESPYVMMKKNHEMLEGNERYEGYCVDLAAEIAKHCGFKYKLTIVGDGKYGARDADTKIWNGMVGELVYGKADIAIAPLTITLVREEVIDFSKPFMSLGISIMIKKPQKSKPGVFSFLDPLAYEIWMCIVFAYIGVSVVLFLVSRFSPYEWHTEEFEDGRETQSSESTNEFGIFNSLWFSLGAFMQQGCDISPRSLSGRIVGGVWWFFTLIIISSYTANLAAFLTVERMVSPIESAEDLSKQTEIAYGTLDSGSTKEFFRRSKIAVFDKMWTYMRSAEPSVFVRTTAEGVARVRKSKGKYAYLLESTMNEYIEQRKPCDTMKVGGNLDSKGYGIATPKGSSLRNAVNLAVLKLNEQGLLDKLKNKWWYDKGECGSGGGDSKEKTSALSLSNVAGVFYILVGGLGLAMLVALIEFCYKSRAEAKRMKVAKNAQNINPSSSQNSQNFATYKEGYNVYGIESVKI
Sequence of Glutamate receptor 1 (P42261 whole entry): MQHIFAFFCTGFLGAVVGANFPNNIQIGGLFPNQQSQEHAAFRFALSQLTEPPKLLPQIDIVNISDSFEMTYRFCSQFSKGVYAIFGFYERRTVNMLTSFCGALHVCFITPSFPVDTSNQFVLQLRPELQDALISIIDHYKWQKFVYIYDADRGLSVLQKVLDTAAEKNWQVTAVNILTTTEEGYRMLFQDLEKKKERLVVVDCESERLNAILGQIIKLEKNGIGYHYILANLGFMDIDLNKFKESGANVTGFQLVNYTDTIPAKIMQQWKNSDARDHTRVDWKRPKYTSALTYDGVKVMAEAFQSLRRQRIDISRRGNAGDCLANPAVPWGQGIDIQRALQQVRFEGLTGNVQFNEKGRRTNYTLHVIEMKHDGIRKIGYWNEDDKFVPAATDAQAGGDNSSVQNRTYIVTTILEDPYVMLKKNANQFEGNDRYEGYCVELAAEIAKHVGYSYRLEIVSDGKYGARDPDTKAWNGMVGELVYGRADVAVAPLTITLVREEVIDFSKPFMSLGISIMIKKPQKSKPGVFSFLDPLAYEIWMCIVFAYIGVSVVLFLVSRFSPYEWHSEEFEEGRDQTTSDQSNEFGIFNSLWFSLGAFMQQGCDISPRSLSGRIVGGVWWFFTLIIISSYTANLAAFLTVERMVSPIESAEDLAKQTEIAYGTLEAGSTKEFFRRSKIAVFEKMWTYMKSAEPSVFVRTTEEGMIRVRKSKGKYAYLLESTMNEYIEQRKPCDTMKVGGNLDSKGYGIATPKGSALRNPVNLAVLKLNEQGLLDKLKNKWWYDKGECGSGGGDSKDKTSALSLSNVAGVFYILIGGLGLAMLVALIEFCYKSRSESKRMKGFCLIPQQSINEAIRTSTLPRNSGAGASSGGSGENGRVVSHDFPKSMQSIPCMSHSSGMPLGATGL
Sequence of Glutamate receptor ionotropic, kainate 2 (Q13002 whole entry): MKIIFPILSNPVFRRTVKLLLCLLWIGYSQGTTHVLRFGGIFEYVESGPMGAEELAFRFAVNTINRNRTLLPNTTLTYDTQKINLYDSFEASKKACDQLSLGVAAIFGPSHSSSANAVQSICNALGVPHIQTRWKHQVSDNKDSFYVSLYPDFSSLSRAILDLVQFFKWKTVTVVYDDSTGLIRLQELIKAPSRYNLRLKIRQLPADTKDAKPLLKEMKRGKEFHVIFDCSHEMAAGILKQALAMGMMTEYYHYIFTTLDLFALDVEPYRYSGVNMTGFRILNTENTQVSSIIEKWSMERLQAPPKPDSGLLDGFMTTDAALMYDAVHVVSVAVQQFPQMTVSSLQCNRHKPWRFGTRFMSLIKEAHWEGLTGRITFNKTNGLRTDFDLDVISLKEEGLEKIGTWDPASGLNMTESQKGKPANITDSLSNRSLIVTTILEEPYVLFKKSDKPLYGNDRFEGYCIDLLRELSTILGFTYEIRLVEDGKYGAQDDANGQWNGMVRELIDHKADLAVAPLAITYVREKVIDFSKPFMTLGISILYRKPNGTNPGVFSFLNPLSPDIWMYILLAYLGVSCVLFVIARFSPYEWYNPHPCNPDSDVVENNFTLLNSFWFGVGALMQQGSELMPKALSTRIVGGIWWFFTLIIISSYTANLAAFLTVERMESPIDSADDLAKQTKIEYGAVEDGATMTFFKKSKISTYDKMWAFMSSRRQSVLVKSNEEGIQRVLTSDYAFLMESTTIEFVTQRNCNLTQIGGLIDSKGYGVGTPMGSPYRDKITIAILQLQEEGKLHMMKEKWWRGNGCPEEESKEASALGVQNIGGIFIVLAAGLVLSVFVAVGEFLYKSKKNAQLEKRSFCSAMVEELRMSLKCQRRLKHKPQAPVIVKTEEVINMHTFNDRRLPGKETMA
Sequence of Glutamate receptor 3 (P42263 whole entry, the tested form may be a part): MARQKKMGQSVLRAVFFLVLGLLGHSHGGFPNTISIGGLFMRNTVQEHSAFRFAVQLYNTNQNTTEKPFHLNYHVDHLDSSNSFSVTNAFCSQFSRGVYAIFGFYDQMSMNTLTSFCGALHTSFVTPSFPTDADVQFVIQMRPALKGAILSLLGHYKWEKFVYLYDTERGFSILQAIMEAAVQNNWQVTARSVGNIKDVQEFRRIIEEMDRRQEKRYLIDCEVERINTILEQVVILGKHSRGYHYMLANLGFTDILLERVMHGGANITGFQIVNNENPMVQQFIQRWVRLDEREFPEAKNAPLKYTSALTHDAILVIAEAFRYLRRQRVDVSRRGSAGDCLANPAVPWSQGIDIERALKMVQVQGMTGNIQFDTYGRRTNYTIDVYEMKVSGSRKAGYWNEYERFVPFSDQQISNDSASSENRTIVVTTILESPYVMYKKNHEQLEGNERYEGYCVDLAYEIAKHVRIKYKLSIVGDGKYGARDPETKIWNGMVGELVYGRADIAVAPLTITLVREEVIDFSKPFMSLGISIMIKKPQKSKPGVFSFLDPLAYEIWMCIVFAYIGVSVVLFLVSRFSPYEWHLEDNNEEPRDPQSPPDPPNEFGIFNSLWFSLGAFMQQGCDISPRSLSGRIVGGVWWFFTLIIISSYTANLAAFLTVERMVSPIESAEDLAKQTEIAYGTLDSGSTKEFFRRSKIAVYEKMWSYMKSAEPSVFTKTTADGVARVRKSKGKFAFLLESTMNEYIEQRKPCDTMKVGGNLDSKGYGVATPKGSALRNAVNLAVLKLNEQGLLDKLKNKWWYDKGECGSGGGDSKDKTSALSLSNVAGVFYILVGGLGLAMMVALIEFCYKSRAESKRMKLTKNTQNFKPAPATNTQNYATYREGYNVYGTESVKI

Structure (SMILES) | Ki [1] [µM] | Ki [2] [µM] | Ki [3] [µM] | Ki [4] [µM] | Ki [5] [µM] | Ki [6] [µM]
N[C@H](Cc1ns[nH]c1=O)C(=O)O | 0.15 | > 1000 | 1.07 | 0.531 | 0.234 | 1.05
N[C@@H](Cc1nsnc1O)C(=O)O | 0.185 | > 100 | 0.16 | 0.323 | 0.273 | 0.182
